Patent publication US20240383900A1, “SUBSTITUTED PYRAZOLO [1,5-A]PYRIMIDINE-7-AMINE COMPOUNDS AS CDK INHIBITORS AND THEIR THERAPEUTIC USE” (Carrick Therapeutics Limited, priority 2021, published 2024)
Read-outs that look alike come from different tables or passages of the source.

Columns and labels:
Human CDK7/CycH/MAT1 = Human CDK7/CycH/MAT1 (Homo sapiens (Human), UniProt P50613); assay: Radiometric protein kinase assay (33PanQinase Activity Assay), CDK7; assay type: biochemical; conditions: ATP 3 μM
Sequence of Human CDK7/CycH/MAT1 (P50613 whole entry): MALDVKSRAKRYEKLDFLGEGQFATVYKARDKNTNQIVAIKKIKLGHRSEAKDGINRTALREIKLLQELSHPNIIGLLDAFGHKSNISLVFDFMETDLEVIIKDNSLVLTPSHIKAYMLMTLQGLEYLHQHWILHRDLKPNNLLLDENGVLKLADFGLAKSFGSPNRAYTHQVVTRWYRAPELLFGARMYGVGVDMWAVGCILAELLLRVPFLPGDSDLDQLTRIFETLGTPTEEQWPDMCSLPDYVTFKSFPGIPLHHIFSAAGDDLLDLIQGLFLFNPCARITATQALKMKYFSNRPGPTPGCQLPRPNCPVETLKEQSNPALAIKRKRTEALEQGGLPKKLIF
Sequence of Human CDK7/CycH/MAT1 (P51946 whole entry partner): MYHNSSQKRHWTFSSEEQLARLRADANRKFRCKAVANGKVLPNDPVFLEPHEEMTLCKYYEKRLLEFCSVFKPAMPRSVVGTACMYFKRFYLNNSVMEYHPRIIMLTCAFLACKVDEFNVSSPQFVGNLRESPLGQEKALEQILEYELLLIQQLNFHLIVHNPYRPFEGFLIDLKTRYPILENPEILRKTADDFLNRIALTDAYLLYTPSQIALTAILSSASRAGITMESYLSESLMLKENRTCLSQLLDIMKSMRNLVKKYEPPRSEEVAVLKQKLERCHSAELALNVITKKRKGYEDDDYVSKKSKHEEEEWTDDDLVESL
Sequence of Human CDK7/CycH/MAT1 (P51948 whole entry partner): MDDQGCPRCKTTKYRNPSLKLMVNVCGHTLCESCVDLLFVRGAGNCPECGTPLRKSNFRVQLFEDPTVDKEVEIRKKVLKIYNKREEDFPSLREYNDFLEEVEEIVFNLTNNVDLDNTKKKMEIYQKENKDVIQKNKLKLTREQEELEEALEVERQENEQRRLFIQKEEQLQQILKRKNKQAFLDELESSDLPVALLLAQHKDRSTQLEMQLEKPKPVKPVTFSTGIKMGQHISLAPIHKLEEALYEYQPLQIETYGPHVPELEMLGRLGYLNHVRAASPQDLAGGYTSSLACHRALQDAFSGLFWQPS
Protocol: Additionally for the CDK7 assay: • Human CDK7/CycH/MAT1 (ProQinase, 0366-0360-4—Lot 2). • RBER-CHKtide (ProQinase, 0581-0000-5—Lot 106).
(§1) A radiometric protein kinase assay (^33PanQinase® Activity Assay) was used for measuring the kinase activity of the two protein kinases (CDK12/CDK7). All kinase assays were performed in 96-well FlashPlates™ from PerkinElmer (Boston, MA, USA) in a 50 μL reaction volume.
(§2) The reaction cocktail was pipetted in four steps in the following order: • 20 μL of assay buffer (standard buffer) • 5 μL of ATP solution (in H2O) • 5 μL of test compound (in 10% DMSO) • 10 μL of substrate/10 μL of enzyme solution (premixed)
For the CDK7 assay, a reaction mixture (50 μL) containing the following components was prepared: • 70 mM HEPES-NaOH (pH 7.5); • sodium orthovanadate (3 μM); • PEG-20000 (50 μg/mL); • DTT (1.2 mM); • MgCl2 (3 mM); • MnCl2 (3 mM); • purified human CDK7/CycH/MAT1 (3.3 nM—Lot 02); • RBER-CHKtide substrate (40 μg/mL—Lot 106); • ATP (3 μM); • [γ-33P]-ATP (approx. 8×10^5 cpm per well); and • test compound at the appropriate concentration such that the final concentration of DMSO was […].
(§3) The reaction mixture was incubated at 30° C. for 60 min and then stopped by the addition of 2% (v/v) H3PO4. Plates were aspirated and washed two times with 200 μL 0.9% (w/v) NaCl. Incorporation of ^33Pi was determined with a microplate scintillation count (Microbeta, Wallac).
The residual activities for each concentration and the compound IC50 values were calculated using Quattro Workflow V3.1.1 (Quattro Research GmbH, Munich, Germany). The fitting model for the IC50 determinations was “Sigmoidal response (variable slope)” with parameters “top” fixed at 100% and “bottom” at 0%. The fitting method used was a least-squares fit.

Human CDK12 wt/CycK = Human CDK12 wt/CycK (Homo sapiens (Human), UniProt Q9NYV4); assay: Radiometric protein kinase assay (33PanQinase Activity Assay), CDK12; assay type: biochemical; conditions: for CDK7/CDK12: ratio of CDK7 IC50 to CDK12 IC50, greater than 1 indicates selectivity for CDK12
Sequence of Human CDK12 wt/CycK (Q9NYV4 whole entry): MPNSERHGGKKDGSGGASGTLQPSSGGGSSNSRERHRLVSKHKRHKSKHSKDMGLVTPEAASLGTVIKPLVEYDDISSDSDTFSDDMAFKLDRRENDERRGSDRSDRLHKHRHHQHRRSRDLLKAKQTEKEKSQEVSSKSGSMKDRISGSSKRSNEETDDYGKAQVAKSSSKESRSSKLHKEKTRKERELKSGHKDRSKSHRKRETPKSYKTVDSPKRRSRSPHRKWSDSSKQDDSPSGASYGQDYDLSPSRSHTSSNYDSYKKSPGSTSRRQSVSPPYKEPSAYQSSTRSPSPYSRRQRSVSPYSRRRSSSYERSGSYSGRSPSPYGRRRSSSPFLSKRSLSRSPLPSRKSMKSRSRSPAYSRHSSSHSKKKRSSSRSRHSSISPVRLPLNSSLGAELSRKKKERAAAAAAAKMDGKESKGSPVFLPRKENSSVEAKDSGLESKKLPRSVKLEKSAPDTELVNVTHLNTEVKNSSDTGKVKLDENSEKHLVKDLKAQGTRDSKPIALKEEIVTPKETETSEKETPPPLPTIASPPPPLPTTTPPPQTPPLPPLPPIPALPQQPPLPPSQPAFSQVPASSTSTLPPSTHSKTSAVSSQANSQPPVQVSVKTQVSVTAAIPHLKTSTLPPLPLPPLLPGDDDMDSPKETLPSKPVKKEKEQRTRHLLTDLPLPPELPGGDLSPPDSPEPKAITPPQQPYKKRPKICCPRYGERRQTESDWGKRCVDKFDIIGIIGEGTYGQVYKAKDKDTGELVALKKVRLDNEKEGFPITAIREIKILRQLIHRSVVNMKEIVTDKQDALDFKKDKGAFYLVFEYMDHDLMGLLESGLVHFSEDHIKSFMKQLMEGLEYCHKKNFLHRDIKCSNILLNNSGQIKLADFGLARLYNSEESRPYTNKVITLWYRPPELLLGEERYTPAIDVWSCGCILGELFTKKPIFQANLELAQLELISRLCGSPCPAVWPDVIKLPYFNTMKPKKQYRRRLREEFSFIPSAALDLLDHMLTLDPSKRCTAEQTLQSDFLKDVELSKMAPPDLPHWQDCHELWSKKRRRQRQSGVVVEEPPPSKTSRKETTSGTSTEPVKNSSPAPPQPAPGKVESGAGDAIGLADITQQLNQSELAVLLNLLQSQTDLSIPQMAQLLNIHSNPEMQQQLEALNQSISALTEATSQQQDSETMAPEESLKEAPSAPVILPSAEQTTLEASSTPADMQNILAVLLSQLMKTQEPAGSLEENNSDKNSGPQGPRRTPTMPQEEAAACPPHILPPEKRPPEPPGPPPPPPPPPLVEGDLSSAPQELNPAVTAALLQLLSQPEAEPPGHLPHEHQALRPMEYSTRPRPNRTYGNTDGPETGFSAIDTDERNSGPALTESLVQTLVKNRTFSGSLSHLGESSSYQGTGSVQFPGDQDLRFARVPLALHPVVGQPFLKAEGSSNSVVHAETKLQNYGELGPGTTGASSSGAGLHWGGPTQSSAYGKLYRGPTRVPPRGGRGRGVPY
Sequence of Human CDK12 wt/CycK (O75909 whole entry partner): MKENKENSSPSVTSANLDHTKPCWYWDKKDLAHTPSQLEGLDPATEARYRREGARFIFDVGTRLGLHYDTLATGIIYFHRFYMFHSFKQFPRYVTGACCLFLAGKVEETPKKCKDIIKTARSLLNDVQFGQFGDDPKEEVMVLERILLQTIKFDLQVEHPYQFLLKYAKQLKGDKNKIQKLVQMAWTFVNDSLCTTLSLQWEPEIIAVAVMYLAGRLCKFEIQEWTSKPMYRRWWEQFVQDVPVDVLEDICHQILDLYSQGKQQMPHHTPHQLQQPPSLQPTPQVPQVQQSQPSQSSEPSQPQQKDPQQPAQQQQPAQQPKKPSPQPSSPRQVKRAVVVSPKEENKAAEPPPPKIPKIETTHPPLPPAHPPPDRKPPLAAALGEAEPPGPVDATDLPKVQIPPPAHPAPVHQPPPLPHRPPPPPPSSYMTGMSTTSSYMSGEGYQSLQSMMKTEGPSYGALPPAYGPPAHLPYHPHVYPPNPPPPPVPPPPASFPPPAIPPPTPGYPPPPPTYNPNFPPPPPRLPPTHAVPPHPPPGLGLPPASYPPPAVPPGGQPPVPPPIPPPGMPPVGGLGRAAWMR
Protocol: as §1, §2, §3
The fitting method used was a least-squares fit.

A673 cells = assay: Cytotoxicity in A673 cells (Cell Titer Glo viability); assay type: cell-based; conditions: for Ratio of Biochemical Potency:Cellular Potency: CDK12 IC50 / A673 IC50; for IC50: Homo sapiens
Protocol: Cells were plated in 96-well plates at a density of […] viable cells per well in 200 μL fully supplemented growth medium (DMEM+10% heat inactivated foetal bovine serum) and incubated for 24 hours in standard tissue culture conditions. Compounds, including MLN4924, were solubilised in DMSO and then diluted in fully supplemented growth medium at 2× their final assay concentration such that the final DMSO concentration was 0.1%. Growth medium in the assay plates was replaced with 50 μL of growth medium containing 2×MLN4924 (final assay concentration: 30 nM, where tested) or vehicle only and 50 μL of growth medium containing a 2× compound concentration series or vehicle only such that each compound was at 1× final assay concentration in 100 μL.
Cells were then incubated for 72 hours in standard tissue culture conditions before viability was assessed using 50 μL Cell Titer Glo reagent (Promega) per well and luminescence measured on an EnVision plate reader. Data were normalised to vehicle control (100%) and cells treated with 0.1% Triton x-100 for 1 hour before viability measurement (0%; full cell kill). […] Viability curves generated in the presence of MLN4924 were normalised and fixed to controls treated with MLN4924.

[1] = ATP 0.3 μM, read-out: CDK12 IC50
[2] = read-out: CKD12 Biochemical Potency IC50
[3] = A673, read-out: Cellular Potency IC50 (nM) (in A673 cells)
[4] = A673 cells, 72 hours, read-out: A673 IC50

| SMILES | IC50 (Human CDK7/CycH/MAT1) | IC50 (Human CDK12 wt/CycK; [1]) | CDK7/CDK12 (Human CDK12 wt/CycK) | IC50 (Human CDK12 wt/CycK; [2]) | Ratio of Biochemical Potency:Cellular Potency (A673 cells) | IC50 (A673 cells; [3]) | IC50 (A673 cells; [4]) |
| --- | --- | --- | --- | --- | --- | --- | --- |
| N[C@H]1CC(=O)N(c2cc(NCc3ccc(-c4ccccn4)cc3)n3ncc(C4CC4)c3n2)C1 [PPA-078] | 6240 nM | 593 nM | 10.5 | 593 nM | 19.64 | 30.2 nM | 30.2 nM |
| Cn1cc(-c2ccccn2)nc1CNc1cc(NC[C@H]2CCNC[C@@H]2O)nc2c(C3CC3)cnn12 [PPA-024] | 17 nM | 6 nM | 2.8 | 6 nM | 0.06 | 96.4 nM | 96.4 nM |
| c1ccc(-c2ccc(CNc3cc(NC4CCNCC4)nc4c(C5CC5)cnn34)cc2)nc1 [PPA-048] | 1290 nM | 82 nM | 15.7 | 82 nM | 12.06 | 6.8 nM | 6.8 nM |
| N#Cc1cnn2c(NCc3ccc(-c4ccccn4)cc3)cc(NC[C@H]3CCNC[C@@H]3O)nc12 [PPA-010] | 340 nM | 36 nM | 9.4 | 36 nM | 4.50 | 8 nM | 8 nM |
| COc1cc(-c2ccccn2)ccc1CNc1cc(NC[C@H]2CCNC[C@@H]2O)nc2c(C3CC3)cnn12 [PPA-030] | 370 nM | 218 nM | 1.7 | 218 nM | 35.16 | 6.2 nM | 6.2 nM |
| c1ccc(-c2ccc(CNc3cc(N[C@@H]4CCCNC4)nc4c(C5CC5)cnn34)cc2)nc1 [PPA-045] | 9610 nM | 374 nM | 25.7 | 374 nM | 11.27 | 33.2 nM | 33.2 nM |
| c1ccc(-c2ccc(CNc3cc(N4CC5(CNC5)C4)nc4c(C5CC5)cnn34)cc2)nc1 [PPA-084] | 14000 nM | 1120 nM | 12.5 | 1120 nM | 15.28 | 73.3 nM | 73.3 nM |
| FC1(CNc2cc(NCc3ccc(-c4ccccn4)cc3)n3ncc(C4CC4)c3n2)CCNCC1 [PPA-062] | 3640 nM | 459 nM | 7.9 | 459 nM | 34.25 | 13.4 nM | 13.4 nM |
| O[C@H]1CNCC[C@@H]1CNc1cc(NCc2ccc(-n3cccc3)cc2)n2ncc(C3CC3)c2n1 [PPA-017] | 337 nM | 115 nM | 2.9 | 115 nM | 63.89 | 1.8 nM | 1.8 nM |
| OC1CCN(c2cc(NCc3ccc(-c4ccccn4)cc3)n3ncc(C4CC4)c3n2)CC1 [PPA-050] | 10500 nM | 423 nM | 24.8 | 423 nM | 9.44 | 44.8 nM | 44.8 nM |
| CC(C)c1cnn2c(NCc3ccc(-c4ncccn4)cc3)cc(NC[C@H]3CCNC[C@@H]3O)nc12 [PPA-007] | 112 nM | 51 nM | 2.2 | 51 nM | 30.00 | 1.7 nM | 1.7 nM |
| OC1CN(c2cc(NCc3ccc(-c4ccccn4)cc3)n3ncc(C4CC4)c3n2)C1 [PPA-052] | > 30000 nM | 6630 nM | >4.5 | 6630 nM | <66.3 | > 100 nM | > 100 nM |
| COc1cccnc1-c1ccc(CNc2cc(NC[C@H]3CCNC[C@@H]3O)nc3c(C4CC4)cnn23)cc1 [PPA-027] | 300 nM | 163 nM | 1.8 | 163 nM | 74.09 | 2.2 nM | 2.2 nM |
| CC1(CNc2cc(NCc3ccc(-c4ccccn4)cc3)n3ncc(C4CC4)c3n2)CCNCC1 [PPA-063] | – | – | – | – | – | 5.9 nM | 5.9 nM |
| O=C1C[C@H](Nc2cc(NCc3ccc(-c4ccccn4)cc3)n3ncc(C4CC4)c3n2)CN1 [PPA-075] | 4720 nM | 145 nM | 32.6 | 145 nM | 25.44 | 5.7 nM | 5.7 nM |
| CC(C)c1cnn2c(NCc3ccc(-c4ccccn4)cc3)cc(NC[C@H]3CCNC[C@@H]3O)nc12 [PPA-001, (3R,4R)-4-(((3-isopropyl-7-((4-(pyridin-2-yl)benzyl)amino)pyrazolo[1,5-a]pyrimidin-5-yl)amino)methyl)piperidin-3-ol] | 162 nM | 61 nM | 2.7 | 61 nM | 21.79 | 2.8 nM | 2.8 nM |
| c1ccc(-c2ccc(CNc3cc(O[C@@H]4CCCNC4)nc4c(C5CC5)cnn34)cc2)nc1 [PPA-061] | 1260 nM | 97 nM | 13.0 | 97 nM | 18.30 | 5.3 nM | 5.3 nM |
| Cc1cc(CNc2cc(NC[C@H]3CCNC[C@@H]3O)nc3c(C(C)C)cnn23)ccc1-c1ccccn1 [PPA-011] | 153 nM | 160 nM | 1.0 | 160 nM | 2.32 | 69 nM | 69 nM |
| CS(=O)(=O)N1CCC(CNc2cc(NCc3ccc(-c4ccccn4)cc3)n3ncc(C4CC4)c3n2)CC1 [PPA-056] | – | – | – | – | – | > 100 nM | > 100 nM |
